Laboratory results published in ChEMBL document CHEMBL3421576, “N-((1,3-Diphenyl-1H-pyrazol-4-yl)methyl)anilines: A novel class of anti-RSV agents” (Bioorg Med Chem Lett, 2015).

Key:
[1] = Cytotoxicity against bovine MDBK cells assessed as cell viability after 72 hrs by MTT method; type: cell-based, Bos taurus; conditions: cattle
[2] = test system: Bovine viral diarrhea virus 1; test: Antiviral activity against BVDV infected in bovine MDBK cells assessed as protection against viral-induced cytopathogenecity after 3 to 4 days by MTT method; type: functional, organism-based; conditions: Bovine viral diarrhea virus isolates and strains, MDBK
[3] = Selectivity index, ratio of CC50 for bovine MDBK cells to EC50 for BVDV infected in bovine MDBK cells
[4] = Cytotoxicity against hamster BHK21 cells assessed as cell viability after 72 hrs by MTT method; type: cell-based, Mesocricetus auratus, BHK-21
Yellow fever virus = test: Antiviral activity against YFV infected in hamster BHK21 cells assessed as protection against viral-induced cytopathogenecity after 3 to 4 days by MTT method; type: functional, organism-based, BHK-21; conditions: Yellow fever virus, BHK-21
[5] = Cytotoxicity against African green monkey Vero 76 cells assessed as cell viability after 48 to 96 hrs by MTT method; type: cell-based; conditions: chlorocebus sabaeus, Vero 76 cells
[6] = test system: Respiratory syncytial virus; test: Antiviral activity against RSV infected in African green monkey Vero 76 cells after 5 days by plaque reduction assay; type: functional, organism-based; conditions: human respiratory syncytial virus, Vero, 120 h
[7] = Selectivity index, ratio of CC50 for African green monkey Vero 76 cells to EC50 for RSV infected in African green monkey Vero 76 cells
[8] = Cytotoxicity against human MT4 cells assessed as cell viability after 96 hrs by MTT method; type: cell-based
[9] = test system: Human immunodeficiency virus 1; test: Antiviral activity against HIV1 infected in human MT4 cells assessed as protection against viral-induced cytopathogenecity after 4 days by MTT method; type: functional, organism-based; conditions: Human immunodeficiency virus 1, MT4, 96 h
[10] = test system: Mammalian orthoreovirus 1; test: Antiviral activity against Reovirus 1 infected in hamster BHK21 cells assessed as protection against viral-induced cytopathogenecity after 3 to 4 days by MTT method; type: functional, cell-based; conditions: Mammalian orthoreovirus 1, BHK-21
Coxsackievirus B5 = test: Antiviral activity against Coxsackievirus B5 infected in African green monkey Vero 76 cells after 3 days by plaque reduction assay; type: functional, organism-based; conditions: Enterovirus B, Vero, 72 h
Enterovirus C = test: Antiviral activity against Poliovirus Sb-1 infected in African green monkey Vero 76 cells after 2 days by plaque reduction assay; type: functional, organism-based; conditions: Enterovirus C, Sb-1, Vero, 48 h
Vaccinia virus = test: Antiviral activity against Vaccinia virus infected in African green monkey Vero 76 cells after 3 days by plaque reduction assay; type: functional, organism-based, Orthopoxvirus vaccinia; conditions: Orthopoxvirus vaccinia, Vero, 72 h
Human alphaherpesvirus 1 = test: Antiviral activity against HSV1 infected in African green monkey Vero 76 cells after 3 days by plaque reduction assay; type: functional, organism-based; conditions: Human alphaherpesvirus 1, Vero, 72 h
[11] = test system: Vesicular stomatitis virus; test: Antiviral activity against VSV infected in African green monkey Vero 76 cells after 2 days by plaque reduction assay; type: functional, organism-based; conditions: Vesicular stomatitis virus, Vero, 48 h
[12] = Selectivity index, ratio of CC50 for hamster BHK21 cells to EC50 for YFV infected in hamster BHK21 cells; set-up: species or system BHK-21

SMILES	CC50 at 72 h [1] [µM]	EC50 [2] [µM]	Ratio CC50/EC50 [3]	CC50 at 72 h [4] [µM]	EC50 (Yellow fever virus) [µM]	CC50 [5] [µM]	EC50 [6] [µM]	Ratio CC50/EC50 [7]	CC50 at 96 h [8] [µM]	EC50 [9] [µM]	EC50 [10] [µM]	EC50 (Coxsackievirus B5) [µM]	EC50 (Enterovirus C) [µM]	EC50 (Vaccinia virus) [µM]	EC50 (Human alphaherpesvirus 1) [µM]	EC50 [11] [µM]	Ratio CC50/EC50 [12]
Clc1ccc(NCc2cn(-c3ccccc3)nc2-c2ccc(Cl)cc2)cc1	> 100	31	>3.2	73	> 73	90	13	6.9	> 100	> 100	> 73	> 90	> 90	> 90	> 90	> 90	
Brc1ccc(NCc2cn(-c3ccccc3)nc2-c2ccccc2)cc1	> 100	31	>3.2	> 100	32	52	9	5.8	> 100	> 100	> 100	> 52	> 52	> 52	> 52	> 52	>3.1
Clc1ccc(NCc2cn(-c3ccccc3)nc2-c2ccccc2)cc1	> 100	29	>3.4	> 100	29	65	6	10.8	> 100	> 100	> 100	> 65	> 65	> 65	> 65	> 65	
Cc1ccc(NCc2cn(-c3ccccc3)nc2-c2ccccc2)cc1	> 100	53	>1.9	> 100	65	> 100	28	>3.6	> 100	> 100	> 100	> 100	> 100	> 100	> 100	> 100	>1.5
Cc1ccc(NCc2cn(-c3ccccc3)nc2-c2ccc(C(F)(F)F)cc2)cc1	> 100	54	>1.8	88	> 88	82	25	3.3	> 100	> 100	> 88	> 82	> 82	> 82	> 82	> 82	
